Test results taken from patent publication US10800792B2, “Inhibitors of Bruton's tyrosine kinase and method of their use” (JANSSEN PHARMACEUTICA NV, priority 2015, dated 2020).

Target: unphosphorylated-BTK kinase domain (UP-BTK), GST-tagged human BTK (389-659aa) (Homo sapiens (Human), UniProt Q06187)
Test: BTK kinase Lanthascreen binding assay
Settings: Lanthascreen tracer competition, 60 minutes incubation; pIC50 = negative log of the IC50 in molar
In short: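 A fluorescent tracer is bound to unphosphorylated BTK; test compound is added to compete it off; the Lanthascreen signal is read and IC50 is fitted, then reported as its negative log in molar.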

Chain of unphosphorylated-BTK kinase domain (UP-BTK), GST-tagged human BTK (389-659aa) (Q06187 389-659): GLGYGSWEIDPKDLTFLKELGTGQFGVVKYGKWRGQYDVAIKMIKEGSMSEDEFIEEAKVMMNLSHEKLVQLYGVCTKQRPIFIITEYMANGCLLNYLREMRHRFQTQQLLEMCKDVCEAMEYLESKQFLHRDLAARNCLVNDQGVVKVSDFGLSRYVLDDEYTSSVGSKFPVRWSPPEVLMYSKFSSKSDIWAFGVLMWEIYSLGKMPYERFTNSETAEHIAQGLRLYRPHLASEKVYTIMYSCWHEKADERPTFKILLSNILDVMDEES

In order of falling “BTK_I_binding pIC50” value:
1. O=C(N[C@@H]1CCCNC1)c1sc2nccc3c2c1NC(=O)N3c1cccc(-c2cccc(F)c2F)c1 [Example 706, (R)-5-(2′,3′-Difluoro-[1,1′-biphenyl]-3-yl)-4-oxo-N-(piperidin-3-yl)-4,5-dihydro-3H-1-thia-3,5,8-triazaacenaphthylene-2-carboxamide]  7.7
2. Cc1cc(Oc2ccccc2)ccc1N1C(=O)Nc2c(C(=O)N[C@@H]3CCCN(C(=O)/C(C#N)=C/C4CC4)C3)sc3nccc1c23 [Example 850, (R,E)-N-(1-(2-Cano-3-cyclopropylacryloyl)piperidin-3-yl)-5-(2-methyl-4-phenoxyphenyl)-4-oxo-4,5-dihydro-3H-1-thia-3,5,8-triazaacenaphthylene-2-carboxamide]  7.6
3. Cc1cc(OC2CCCC2)ncc1N1C(=O)Nc2c(C(=O)N[C@@H]3CCCNC3)sc3nccc1c23 (single isomer, unassigned) [Example 761, (R)-5-(*S)-(6-(Cyclopentyloxy)-4-methylpyridin-3-yl)-4-oxo-N-(piperidin-3-yl)-4,5-dihydro-3H-1-thia-3,5,8-triazaacenaphthylene-2-carboxamide]  7.1
4. Cc1cc(Oc2ccccc2)ccc1N1C(=O)Nc2c(C(=O)NC3CCCN(C(=O)/C(C#N)=C/C4CC4)C3)sc3nccc1c23 (stereo not shown) [Example 877, (E)-N-(1-(2-Cyano-3-cyclopropylacryloyl)piperidin-3-yl)-5-(2-methyl-4-phenoxyphenyl)-4-oxo-4,5-dihydro-3H-1-thia-3,5,8-triazaacenaphthylene-2-carboxamide]  7.1
5. COc1ccccc1Oc1ccc(N2C(=O)Nc3c(C(=O)NC4CCCN(C(=O)/C(C#N)=C/C(C)(C)C)C4)sc4nccc2c34)c(C)c1 (stereo not shown) [Example 896, (E)-N-(1-(2-Cyano-4,4-dimethylpent-2-enoyl)piperidin-3-yl)-5-(4-(2-methoxyphenoxy)-2-methylphenyl)-4-oxo-4,5-dihydro-3H-1-thia-3,5,8-triazaacenaphthylene-2-carboxamide]  6.9
6. Cc1cc(Oc2ccccc2)ccc1N1C(=O)Nc2c(C(=O)NC3CCCN(C)C3)sc3nccc1c23 (stereo not shown) [Example 898, 5-(2-Methyl-4-phenoxyphenyl)-N-(1-methylpiperidin-3-yl)-4-oxo-4,5-dihydro-3H-1-thia-3,5,8-triazaacenaphthylene-2-carboxamide]  6.8
7. Cc1cc(Oc2ccccc2)ccc1N1C(=O)Nc2c(C(=O)N[C@H]3CCCN(C(=O)/C(C#N)=C/C4CC4)C3)sc3nccc1c23 [Example 899, (S,E)-N-(1-(2-Cyano-3-cyclopropylacryloyl)piperidin-3-yl)-5-(2-methyl-4-phenoxyphenyl)-4-oxo-4,5-dihydro-3H-1-thia-3,5,8-triazaacenaphthylene-2-carboxamide]  6.8
8. O=C(N[C@@H]1CCNC1)c1sc2nccc3c2c1NC(=O)N3c1cccc(-c2ccccc2)c1 [Example 599, (R)-5-([1,1′-Biphenyl]-3-yl)-4-oxo-N-(pyrrolidin-3-yl)-4,5-dihydro-3H-1-thia-3,5,8-triazaacenaphthylene-2-carboxamide]  6.5

Same assay, conditions: pIC50 = negative log of the IC50 in molar; 60 minutes incubation, 50 nM Tracer 236

In order of falling “BTK_I_binding pIC50” value:
1. Cc1cc(Oc2ccccc2)ccc1N1C(=O)Nc2c(C(=O)N[C@@H]3CCN(C(=O)/C=C/CO)C3)sc3nccc1c23 [Example 30, (R,E)-N-(1-(4-Hydroxybut-2-enoyl)pyrrolidin-3-yl)-5-(2-methyl-4-phenoxyphenyl)-4-oxo-4,5-dihydro-3H-1-thia-3,5,8-triazaacenaphthylene-2-carboxamide]  7.6
2. Cc1cc(Oc2c(F)cccc2F)ccc1N1C(=O)Nc2c(C(=O)N[C@@H]3CCCN(C)C3)sc3nccc1c23 [Example 52, (R)-5-(4-(2,6-Difluorophenoxy)-2-methylphenyl)-N-(1-methylpiperidin-3-yl)-4-oxo-4,5-dihydro-3H-1-thia-3,5,8-triazaacenaphthylene-2-carboxamide]  7.0
3. C=CC(=O)N1CCC[C@@H](NC(=O)c2sc3nccc4c3c2NC(=O)N4c2ccccc2C)C1 [Example 216, (R)—N-(1-Acryloylpiperidin-3-yl)-4-oxo-5-(o-tolyl)-4,5-dihydro-3H-1-thia-3,5,8-triazaacenaphthylene-2-carboxamide]  6.7
4. C=CC(=O)N1CC[C@@H](N(C)C(=O)c2sc3nccc4c3c2NC(=O)N4c2ccc(Oc3ccccc3)cc2C)C1 [Example 137, (R)—N-(1-Acryloylpyrrolidin-3-yl)-N-methyl-5-(2-methyl-4-phenoxyphenyl)-4-oxo-4,5-dihydro-3H-1-thia-3,5,8-triazaacenaphthylene-2-carboxamide]  6.6
5. CC(C)=C(F)C(=O)N1CCC[C@@H](NC(=O)c2sc3nccc4c3c2NC(=O)N4c2ccc(Oc3ccccc3)cc2C)C1 [Example 263, (R)—N-(1-(2-Fluoro-3-methylbut-2-enoyl)piperidin-3-yl)-5-(2-methyl-4-phenoxyphenyl)-4-oxo-4,5-dihydro-3H-1-thia-3,5,8-triazaacenaphthylene-2-carboxamide]  6.4

Same assay, conditions: pIC50 = negative log of the IC50 in molar; 60 minutes incubation, 50 nM Tracer 236; read-out: BTK_I_binding pIC50 (converted)

In order of falling IC50:
1. Cc1cc(OC2CCCCC2)ccc1N1C(=O)Nc2c(C(=O)N[C@@H]3CCCN(C(=O)/C(C#N)=C/C4CC4)C3)sc3nccc1c23 [Example 178, (R,E)-N-(1-(2-Cyano-3-cyclopropylacryloyl)piperidin-3-yl)-5-(4-(cyclohexyloxy)-2-methylphenyl)-4-oxo-4,5-dihydro-3H-1-thia-3,5,8-triazaacenaphthylene-2-carboxamide]  100 nM
2. C=CC(=O)N1CC[C@@H](NC(=O)c2sc3nccc4c3c2NC(=O)N4c2ccc(Oc3ccccc3)c(F)c2C)C1 [Example 7, (R)—N-(1-Acryloylpyrrolidin-3-yl)-5-(3-fluoro-2-methyl-4-phenoxyphenyl)-4-oxo-4,5-dihydro-3H-1-thia-3,5,8-triazaacenaphthylene-2-carboxamide]  12.6 nM

Same assay, conditions: unphosphorylated-BTK kinase domain, 50 nM Tracer 236, 60 minutes; pIC50 = negative log of the IC50 in molar

In order of falling “BTK_I_binding pIC50” value:
1. C=CC(=O)N1CCC[C@@H](NC(=O)c2sc3nccc4c3c2NC(=O)N4c2cccc(Oc3ccccc3)c2)C1 [Example 527, (R)—N-(1-Acryloylpiperidin-3-yl)-4-oxo-5-(3-phenoxyphenyl)-4,5-dihydro-3H-1-thia-3,5,8-triazaacenaphthylene-2-carboxamide]  8.1
2. C=CC(=O)N1CCC[C@@H](NC(=O)c2sc3nccc4c3c2NC(=O)N4c2cccc(-c3ccccc3)c2)C1 [Example 421, (R)-5-([1,1′-Biphenyl]-3-yl)-N-(1-acryloylpiperidin-3-yl)-4-oxo-4,5-dihydro-3H-1-thia-3,5,8-triazaacenaphthylene-2-carboxamide]  7.9
3. Cc1cc(Oc2ccccc2)ccc1N1C(=O)Nc2c(C(=O)N[C@@H]3CCCN(C(=O)CCl)C3)sc3nccc1c23 [Example 396, (R)—N-(1-(2-Chloroacetyl)piperidin-3-yl)-5-(2-methyl-4-phenoxyphenyl)-4-oxo-4,5-dihydro-3H-1-thia-3,5,8-triazaacenaphthylene-2-carboxamide]  7.8
4. Cc1cc(Oc2ccccc2)ccc1N1C(=O)Nc2c(C(=O)N[C@@H]3CCCN(C(=O)[C@@H](C)CO)C3)sc3nccc1c23 [Example 547, N—((R)-1-((S)-3-Hydroxy-2-methylpropanol)piperidin-3-yl)-5-(2-methyl-4-phenoxyphenyl)-4-oxo-4,5-dihydro-3H-1-thia-3,5,8-triazaacenaphthylene-2-carboxamide]  7.4
5. Cc1cc(Oc2ccccc2)ccc1N1C(=O)Nc2c(C(=O)N[C@@H]3CCN(C(=O)/C=C/CN)C3)sc3nccc1c23 [Example 382, (R,E)-N-(1-(4-Aminobut-2-enoyl)pyrrolidin-3-yl)-5-(2-methyl-4-phenoxyphenyl)-4-oxo-4,5-dihydro-3H-1-thia-3,5,8-triazaacenaphthylene-2-carboxamide]  7.3
6. C=CC(=O)N1CCC[C@@H](NC(=O)c2sc3nccc4c3c2NC(=O)N4c2cccc(C3CCCCC3)c2)C1 [Example 519, (R)—N-(1-Acryloylpiperidin-3-yl)-5-(3-cyclohexylphenyl)-4-oxo-4,5-dihydro-3H-1-thia-3,5,8-triazaacenaphthylene-2-carboxamide]  7.3
7. C=CC(=O)N1CC[C@@H](NC(=O)c2sc3nccc4c3c2NC(=O)N4c2ccc(C(C)C)cc2C)C1 [Example 445, (R)—N-(1-Acryloylpyrrolidin-3-yl)-5-(4-isopropyl-2-methylphenyl)-4-oxo-4,5-dihydro-3H-1-thia-3,5,8-triazaacenaphthylene-2-carboxamide]  6.7
8. COc1ccc(N2C(=O)Nc3c(C(=O)N[C@@H]4CCCN(C)C4)sc4nccc2c34)c(C)c1 [Example 340, (R)-5-(4-Methoxy-2-methylphenyl)-N-(1-methylpiperidin-3-yl)-4-oxo-4,5-dihydro-3H-1-thia-3,5,8-triazaacenaphthylene-2-carboxamide]  5.3

Same assay, conditions: unphosphorylated-BTK kinase domain, 60 minutes incubation, 50 nM Tracer 236; pIC50 = negative log of the IC50 in molar

In order of rising “BTK_I_binding pIC50” value:
1. C=CC(=O)N1CCC[C@@H](NC(=O)c2sc3nccc4c3c2NC(=O)N4c2ccc(Oc3cccnn3)nc2C)C1 [Example 975, (R)—N-(1-Acryloylpiperidin-3-yl)-5-(2-methyl-6-(pyridazin-3-yloxy)pyridin-3-yl)-4-oxo-4,5-dihydro-3H-1-thia-3,5,8-triazaacenaphthylene-2-carboxamide]  5.0
2. C=CC(=O)N1CCC[C@@H](NC(=O)c2sc3nccc4c3c2NC(=O)N4c2cc(Cl)cc(Cl)c2)C1 [Example 941, (R)—N-(1-Acryloylpiperidin-3-yl)-5-(3,5-dichlorophenyl)-4-oxo-4,5-dihydro-3H-1-thia-3,5,8-triazaacenaphthylene-2-carboxamide]  5.8
